# Test results from publication PMC5291098, “Molecular mutagenesis of ppGpp: turning a RelA activator into an inhibitor” (Scientific Reports, 2017).
# Entries after “also recorded” stand apart in the source; their conditions may differ.
# Tested on: T1, RelA binding to 70S initiation complexes
# T1 construct: made in house
# Test: Spin down assay of RelA binding to 70S initiation complexes
# Set-up: species or system Escherichia coli
# Settings: 500 μM compound; 2 μM RelA, 1 μM 70S IC programmed with mRNA(MF), with or without tRNAPhe
# Method: Figure 4 Functional studies of DR-M014 and DR-4250 with programmed ribosomal complexes. (a,b) Inhibition of RelA activated by starved ribosomal complexes containing deacylated A-site tRNA^Phe. The reaction mixture contained 30 nM RelA, 0.5 μM 70S, 2 μM tRNA^Phe, 2 μM tRNAi^Met, 2 μM mRNA(MF), 100 μM ppGpp, 0.3 mM [^3H] GDP and 1 mM ATP. The experiments were performed in HEPES:Polymix buffer with 5 mM Mg^2+. Error bars represent standard deviations of linear regression estimates, each experiment was performed at least three times. […] Reaction mixture containing combinations of 2 μM RelA, 1 μM 70S initiation complexes programmed with mRNA(MF), 3 μM deacylated tRNA^Phe and test compounds at 500 μM was preincubated at 37 °C for 15 minutes prior to loading 50 μl samples on top of a 50 μl 30% sucrose cushion. After centrifugation for 25 minutes (70,000 r.p.m. at 12 °C) the supernatants were quickly aspirated, the pellets resuspended in 20 μl of SDS loading buffer, and the proteins resolved on 10% SDS-PAGE gel.
# The ppGpp-analogues reported earlier promote RelA association with 70S ribosome[25][26] and are, therefore, promising tools for generating stable 70S:RelA complexes for structural investigations. […]
# 3', 300 μM 3H-GDP, 100 μM ppGpp was pre-incubated at 37° C for 2 min and then reaction started by addition of 1 mM ATP, time points (5 μl) taken, quenched with formic acid and analyzed by TLC. […]
smiles,measurement,value
Nc1nc2c(ncn2C2CCN(C(=O)P(=O)(O)O)CC2)c(=O)[nH]1 [DR-M014],Effect on RelA binding to 70S initiation complexes (in words),promote RelA binding to 70S initiation complexes; also recorded: significantly promotes RelA binding
